Data published in US20260210939A1, “MODIFIED OLFACTORY RECEPTORS” (GIVAUDAN SA, priority 2022, published 2026).

Tests used:
[1] = biological target: T1, OR2T11 (Homo sapiens, UniProt Q8NH01, C119R); assay: CRE-luciferase assay, HEK293T cells expressing OR2T11 (wild-type / modified C-terminus); format: cell-based
T1 construct: Improved functional expression of modified OR-genes containing the truncated, optimized C-terminus; expressed in transfected cells; host or cells: HEK293T stably expressing human RTP1S(V227I) and RTP2(L220R)
T1 sequence (Q8NH01 with tags, fused parts or gaps C119R): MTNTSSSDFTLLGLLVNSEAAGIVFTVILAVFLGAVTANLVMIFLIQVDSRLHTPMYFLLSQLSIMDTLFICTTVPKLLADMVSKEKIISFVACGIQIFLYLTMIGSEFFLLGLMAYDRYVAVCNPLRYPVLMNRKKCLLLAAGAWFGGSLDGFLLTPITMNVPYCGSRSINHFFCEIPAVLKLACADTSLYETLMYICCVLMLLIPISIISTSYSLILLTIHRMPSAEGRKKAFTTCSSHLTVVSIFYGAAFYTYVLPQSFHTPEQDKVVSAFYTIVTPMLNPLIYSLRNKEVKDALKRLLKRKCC

[2] = biological target: T2, OR2T4 (Homo sapiens, UniProt Q8NH00, D328E/G331D/M330K); details: OR2T4 with optimized C-terminus SEQ ID NO: 86
T2 sequence (Q8NH00 with tags, fused parts or gaps D328E/M330K/G331D): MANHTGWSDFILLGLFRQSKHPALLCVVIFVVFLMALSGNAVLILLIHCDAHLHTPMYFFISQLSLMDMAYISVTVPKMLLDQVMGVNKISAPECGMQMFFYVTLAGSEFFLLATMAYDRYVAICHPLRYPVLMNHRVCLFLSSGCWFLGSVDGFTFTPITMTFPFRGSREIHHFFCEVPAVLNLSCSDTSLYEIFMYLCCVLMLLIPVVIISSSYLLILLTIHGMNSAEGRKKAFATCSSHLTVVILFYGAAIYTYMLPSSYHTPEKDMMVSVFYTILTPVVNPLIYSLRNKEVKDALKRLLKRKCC

[3] = biological target: T3, OR10J1(M51I, I92M) (Homo sapiens, UniProt P30954, I103M/M62I); assay: Dose-response test of single lactones on OR10J1(M51I, I92M); format: cell-based
T3 construct: expressed in transfected cells; transient transfection of pcDNA3.1(+) OR plasmid
T3 sequence (P30954 with tags, fused parts or gaps M62I/I103M): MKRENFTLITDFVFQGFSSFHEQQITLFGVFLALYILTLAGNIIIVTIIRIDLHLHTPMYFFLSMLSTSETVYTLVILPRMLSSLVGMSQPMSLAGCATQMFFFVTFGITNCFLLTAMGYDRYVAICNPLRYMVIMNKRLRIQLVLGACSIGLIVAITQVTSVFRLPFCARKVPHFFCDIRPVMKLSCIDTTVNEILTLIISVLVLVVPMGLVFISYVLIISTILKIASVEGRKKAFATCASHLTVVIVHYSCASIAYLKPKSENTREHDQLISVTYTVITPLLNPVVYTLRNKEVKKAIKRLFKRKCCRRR
Description: (§1) In a subsequent de-convultion experiment, the single ingredients were tested in a dose-response test on all the identified OR. […] Thus, OR2AP1 and OR2J2 are particularly strongly activated by the long-chain dodecalactone gamma, while OR10A3 is very sensitive to several longer chain lactones. […] Among the five OR, OR10A3 is the most sensitive.

[4] = biological target: T4, OR10A6(A117V, V140G, L287P) (Homo sapiens, UniProt Q8NH74, A117V/L287P/V140G); assay: Dose-response test of single lactones on OR10A6(A117V, V140G, L287P); format: cell-based
T4 construct: expressed in transfected cells; transient transfection of pcDNA3.1(+) OR plasmid
T4 sequence (Q8NH74 with tags, fused parts or gaps A117V/V140G/L287P limits assumed): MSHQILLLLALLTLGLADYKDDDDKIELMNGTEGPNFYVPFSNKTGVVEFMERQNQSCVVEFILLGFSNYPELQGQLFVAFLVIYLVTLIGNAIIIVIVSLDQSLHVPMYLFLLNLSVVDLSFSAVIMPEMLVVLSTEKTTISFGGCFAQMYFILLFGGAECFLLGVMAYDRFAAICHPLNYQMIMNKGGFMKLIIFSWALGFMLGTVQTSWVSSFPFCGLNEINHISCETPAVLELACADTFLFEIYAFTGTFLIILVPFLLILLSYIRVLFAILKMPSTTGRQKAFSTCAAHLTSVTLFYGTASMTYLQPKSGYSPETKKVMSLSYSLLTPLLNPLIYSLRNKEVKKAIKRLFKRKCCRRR
Description: as §1

[5] = biological target: T5, OR2AP1 (Homo sapiens, UniProt Q8NGE2); assay: Dose-response test of single lactones on OR2AP1; format: cell-based
T5 construct: expressed in transfected cells; transient transfection of pcDNA3.1(+) OR plasmid
T5 sequence (Q8NGE2 with tags, fused parts or gaps limits assumed): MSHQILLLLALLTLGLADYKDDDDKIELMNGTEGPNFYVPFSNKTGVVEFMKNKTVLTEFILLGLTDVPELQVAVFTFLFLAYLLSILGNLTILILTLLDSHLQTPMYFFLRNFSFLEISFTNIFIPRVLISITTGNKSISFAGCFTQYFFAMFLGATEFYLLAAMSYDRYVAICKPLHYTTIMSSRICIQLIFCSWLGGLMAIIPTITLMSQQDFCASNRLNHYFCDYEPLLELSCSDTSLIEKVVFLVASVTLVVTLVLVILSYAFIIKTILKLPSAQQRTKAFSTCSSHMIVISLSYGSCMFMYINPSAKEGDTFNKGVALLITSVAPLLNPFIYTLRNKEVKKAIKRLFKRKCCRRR
Description: as §1

[6] = biological target: T6, OR2J2 (Homo sapiens, UniProt O76002, A146V/A218T/A302I/G300K/H297E/H74Y); assay: Dose-response test of single lactones on OR2J2; format: cell-based
T6 construct: expressed in transfected cells; transient transfection of pcDNA3.1(+) OR plasmid
T6 sequence (O76002 with tags, fused parts or gaps H74Y/A146V/A218T/H297E/G300K/A302I limits assumed): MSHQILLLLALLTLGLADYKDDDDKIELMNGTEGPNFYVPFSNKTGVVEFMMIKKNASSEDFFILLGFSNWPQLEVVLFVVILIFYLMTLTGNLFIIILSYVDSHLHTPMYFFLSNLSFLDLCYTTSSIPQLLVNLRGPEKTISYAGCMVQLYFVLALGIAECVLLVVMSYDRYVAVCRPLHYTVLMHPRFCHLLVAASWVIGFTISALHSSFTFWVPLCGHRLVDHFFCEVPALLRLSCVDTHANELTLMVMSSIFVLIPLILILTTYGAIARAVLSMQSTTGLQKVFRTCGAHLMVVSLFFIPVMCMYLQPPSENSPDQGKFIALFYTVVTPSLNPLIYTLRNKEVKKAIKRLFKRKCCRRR
Description: as §1

[7] = biological target: T7, OR10A3 (Homo sapiens, UniProt P58181); assay: Dose-response test of single lactones on OR10A3 (luciferase); format: cell-based
T7 construct: Class II OR library members with modified C-terminal domains; expressed in transfected cells
T7 sequence (P58181 with tags, fused parts or gaps): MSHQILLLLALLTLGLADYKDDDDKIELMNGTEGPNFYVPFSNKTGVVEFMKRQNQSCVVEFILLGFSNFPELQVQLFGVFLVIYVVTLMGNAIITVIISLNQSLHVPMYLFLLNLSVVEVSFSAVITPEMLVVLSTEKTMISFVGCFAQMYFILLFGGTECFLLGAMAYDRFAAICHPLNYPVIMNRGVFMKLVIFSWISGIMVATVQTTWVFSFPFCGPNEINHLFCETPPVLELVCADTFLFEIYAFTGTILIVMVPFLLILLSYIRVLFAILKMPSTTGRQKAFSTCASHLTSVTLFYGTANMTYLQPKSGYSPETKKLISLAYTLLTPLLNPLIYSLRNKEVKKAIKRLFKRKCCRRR
Description: as §1

Compound | Comments on efficacy [1] | Detection threshold; concentration for 2-fold induction ([1]; changed C-term. SEQ ID NO: 86) [µM] | EC50 ([1]; changed C-term. SEQ ID NO: 86) [µM] | Fold-improvement potency ([1]; changed C-term. vs wild-type) | Fold-improvement threshold ([1]; changed C-term. vs wild-type) | Detection threshold; concentration for 2-fold induction ([1]; wild-type) [µM] | EC50 ([1]; wild-type) [µM] | ligand identification in sulfur odorant screen [2] | EC2 (concentration for 2-fold luciferase induction) [3] [µM] | EC2 (concentration for 2-fold luciferase induction) [4] [µM] | EC2 (concentration for 2-fold luciferase induction) [5] [µM] | EC2 (concentration for 2-fold luciferase induction) [6] | EC10, concentration for 10-fold OR activation [7] [μM]
C=CCSSCC=C [Diallyl disulfide] | No induction | 2.03 | 6.51 | >>40 | >100 | >200 | > 200 | good ligands | – | – | – | – | –
CCCCCCCC1CCCC(=O)O1 (centres unmarked) [Dodecalactone delta] | – | – | – | – | – | – | – | – | 31.38 | 1.11 | 15.76 | 35.12 µM | 2.59
CCCCCCCCC1CCC(=O)O1 (centres unmarked) [Dodecalactone gamma] | – | – | – | – | – | – | – | – | 5.31 | 0.48 | 1.31 | 1.41 µM | 0.85
CC1=CCC(C(C)CC2CCCC2=O)CC1 (centres unmarked) [Nectaryl] | – | – | – | – | – | – | – | – | – | 1.12 | 19.72 | inactive | 2.32
CCCCCC1CCC(=O)O1 (centres unmarked) [Nonalactone gamma] | – | – | – | – | – | – | – | – | 11.14 | 11.34 | – | 12.85 µM | 2.83
CCCCC1CCC(=O)O1 (centres unmarked) [Octalactone gamma] | – | – | – | – | – | – | – | – | 101.73 | – | – | 65.20 µM | 26.93
